The target of assay [1] is T1, recombinant human glucocorticoid receptor (Homo sapiens, UniProt P04150).
T1 construct: purchased Panvera/Invitrogen P2812 (kit P2893)
T1 sequence (P04150 1-777): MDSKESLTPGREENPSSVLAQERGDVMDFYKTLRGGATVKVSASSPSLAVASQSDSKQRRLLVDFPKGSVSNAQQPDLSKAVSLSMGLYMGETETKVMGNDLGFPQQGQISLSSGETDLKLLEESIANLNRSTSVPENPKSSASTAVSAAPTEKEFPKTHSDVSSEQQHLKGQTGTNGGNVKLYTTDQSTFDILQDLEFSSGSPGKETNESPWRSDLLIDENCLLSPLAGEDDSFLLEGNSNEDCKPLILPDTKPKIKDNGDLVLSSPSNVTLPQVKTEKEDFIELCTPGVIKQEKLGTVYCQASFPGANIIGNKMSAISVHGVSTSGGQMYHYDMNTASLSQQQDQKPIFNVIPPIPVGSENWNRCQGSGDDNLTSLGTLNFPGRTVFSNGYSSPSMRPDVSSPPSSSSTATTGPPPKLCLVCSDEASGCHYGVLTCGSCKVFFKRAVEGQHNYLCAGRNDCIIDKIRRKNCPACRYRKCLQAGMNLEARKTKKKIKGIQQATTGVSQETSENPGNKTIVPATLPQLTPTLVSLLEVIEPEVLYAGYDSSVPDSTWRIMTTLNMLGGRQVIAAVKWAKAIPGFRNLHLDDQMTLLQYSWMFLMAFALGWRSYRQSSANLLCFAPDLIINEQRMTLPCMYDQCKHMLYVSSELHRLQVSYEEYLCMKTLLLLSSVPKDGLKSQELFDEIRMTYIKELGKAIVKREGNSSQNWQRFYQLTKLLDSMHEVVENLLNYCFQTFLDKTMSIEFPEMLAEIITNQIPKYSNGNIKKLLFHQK
The assay can be described thus: Human glucocorticoid receptor assay (2) (fluorescence polarization, Test Example 5). The settings on record: for selectivity for human glucocorticoid receptor over progesterone receptor: from the results of Test Examples 5 and 6. The class given is binding. The procedure: In this assay, a fluorescence polarization assay kit (Panvera/Invitrogen, product number: P2893) was used. The recombinant human glucocorticoid receptor (product number: P2812), the Fluoromore (trademark)-labeled dexamethasone (GS Green, product number: P2813), the stabilizing peptide solution (product number: P2815), and the basic buffer solution (product number: P2814) which were used in the assay kit had been stored at −80° C. until used. A buffer solution for the assay was prepared by adding the basic buffer solution (10 fold dilution), the stabilizing peptide solution (10 fold dilution), and 1 mol/L DTT (dithiothreitol) (1000 fold dilution to give a final concentration of 1 mmol/L).
The assay was performed as follows. The test compound was diluted to 2-fold of the desired concentration with the buffer solution for the assay, and 16 μL of that was added to each well. Next, the Fluoromore (trademark)-labeled dexamethasone was diluted with the buffer solution for the assay so as to be 4 nmol/L, and 8 μL of that was added to each well. Further, the recombinant human glucocorticoid receptor was diluted with the buffer solution for the assay so as to be 16 nmol/L, and 8 μL of that was added to each well. After stirring the mixture, the mixture was incubated under a light-shielded condition at room temperature for 2 hours or more. The fluorescence polarization value of each well was measured using a plate reader (PerkinElmer, Fusion or Envision). To a negative control group, the compound was not added. To a positive control group, dexamethasone was added so as to give a final concentration of 1 μmol/L. The glucocorticoid receptor binding inhibitory rate (%) was calculated by the following formula.
Glucocorticoid receptor binding inhibitory rate (%)=100×[1−(fluorescence polarization value of test compound solution−fluorescence polarization value of positive control solution)/(fluorescence polarization value of negative control solution−fluorescence polarization value of positive control solution)]
A general note: In fluorescence polarisation assays a small probe gives low polarisation when free and higher when bound to something large.

Assay [2] relates to transcription-promoting activity via the glucocorticoid receptor (A549/MMTV-LTR cells). Format: cell-based. The settings on record: at a concentration of 300 nmol/L; relative to dexamethasone. The procedure:
A pGL4.14 plasmid (Promega, product number: AY864928) having a cloned MMTV-LTR fragment upstream of the luciferase gene (−200 to +100 relative to the transcription initiation site) was introduced into A549 cells, and the obtained strain which is constitutively resistant to a selective antibiotic hygromycin B (A549/MMTV-LTR) was used for evaluation. The A549/MMTV-LTR cells were transferred to a 96-well plate (25000 cells/well) and were cultured overnight. […] Next, 20 μL of the test compound diluted to 5-fold of the desired concentration with F-12 medium or 20 μL of 4 μmol/L dexamethasone was added thereto, and the mixture was incubated under 5% CO2 at 37° C. for 6 hours. To each well, 50 μL of a luminescence reagent (Promega, product number: E2550 or E2650) was added, and the mixture was stirred to dissolve the cells, and the luciferase activity was measured by a plate reader (PerkinElmer, TopCount).
MMTV activity (%)=100×(luminescence amount in the presence of the compound−luminescence amount in the absence of the compound)/(luminescence amount in the presence of dexamethasone−luminescence amount in the absence of the compound)

Assay [3] relates to IL-1β induced IL-6 production (A549 cells). The assay can be described thus: Inhibition assay for IL-1β induced IL-6 production in A549 cells (Test Example 3). Format: cell-based, human. The following applies: Homo sapiens, at a concentration of 100 nmol/L, IL-1β stimulation, relative to dexamethasone, read-out: IL-6 production inhibitory activity. The procedure:
A549 cells cultured in F-12 medium supplemented with 10% bovine serum for 3 to 5 days were transferred to a 96-well plate (50000 cells/well) and then were cultured overnight. […] After the medium was removed by suction, 60 μL of F-12 medium was added to each well, and 20 μL of the test compound diluted to 5-fold of the desired concentration with F-12 medium or 20 μL of 4 μmol/L dexamethasone was added thereto. The test compound and the dexamethasone used here were prepared beforehand by dissolving in dimethyl sulfoxide (DMSO) and diluting with F-12 medium so that the final concentration of DMSO became 0.1% v/v or lower. After 30-minute incubation under 5% CO2 atmosphere at 37° C., 20 μL of 4 nmol/L IL-1β diluted with F-12 medium was added to each well, and then incubation was performed under a 5% CO2 atmosphere at 37° C. for 12 to 18 hours. The 96-well plate was centrifuged at 300×g at 4° C. for 5 minutes, and then the culture supernatant was collected for use as a sample for IL-6 measurement. The IL-6 produced in the culture supernatant was quantified by the ELISA method (R&D Systems, product number: DY206, DouSet ELISA Development System Human IL-6), and the production inhibition rate was calculated by the following formula. […]

`CC/C(=C1\c2cc3cnn(C(C)C)c3cc2COc2ncccc21)c1cccc(NS(C)(=O)=O)c1` [Compound 25, (Z)-1-isopropyl-5-{1-[3-(methanesulfonamide)phenyl]propylidene}-5,11-dihydro-1H-indazolo[5,6-e]pyrido-[2,3-b]oxepin]: the “selectivity for human glucocorticoid receptor over progesterone receptor” value (shortened to “selectivity”) in assay [1] is “selective binding activity to human glucocorticoid receptors”.

For the compound `CC/C(=C1\c2cc3cnn(C4CC4)c3cc2COc2ncccc21)c1cccc(NS(C)(=O)=O)c1` [Compound 34, (Z)-1-cyclopropyl-5-{1-[3-(methanesulfonamide)phenyl]propylidene}-5,11-dihydro-1H-indazolo[5,6-e]pyrido[2,3-b]oxepin], the MMTV activity in assay [2] was 25%. For the same compound, the “selectivity” value in assay [1] was “selective binding activity to human glucocorticoid receptors”.

For the compound `C[C@]12C=CC(=O)C=C1CC[C@@H]1[C@@H]2[C@@H](O)C[C@@]2(C)[C@H]1CC[C@]2(O)C(=O)CO` [prednisolone, reference compound], the MMTV activity in assay [2] is ≥ 80%.

Take `CC/C(C(=O)Nc1nccs1)=C1\c2cc3cnn(-c4ccc(F)cc4)c3cc2COc2ccccc21` [Compound 89, (Z)-1-(4-fluorophenyl)-5-{1-[(thiazole-2-yl)aminocarbonyl]propylidene}-5,11-dihydro-1H-indazolo[5,6-e]benzo[b]oxepin]: the inhibition at 0.1 µM in assay [3] was ≥ 80%; in assay [1] (at a concentration of 100 nmol/L, read-out: glucocorticoid receptor binding inhibitory activity) it was ≥ 80%.

With `CC/C(=C1\c2cc3cnn(-c4ccc(F)cc4)c3cc2COc2ncccc21)c1cccc(NS(C)(=O)=O)c1` [Compound 43, (Z)-1-(4-fluorophenyl)-5-{1-[3-(methanesulfonamide)phenyl]-propylidene}-5,11-dihydro-1H-indazolo[5,6-e]pyrido[2,3-b]oxepin], the “selectivity” value in assay [1] is listed as “selective binding activity to human glucocorticoid receptors”.

For the compound `CC/C(=C1\c2cc3cnn(C(C)C)c3cc2COc2ccccc21)c1cccc(NS(C)(=O)=O)c1` [Compound 8, (Z)-5-{1-[3-(methanesulfonamide)phenyl]propylidene}-1-isopropyl-5,11-dihydro-1H-indazolo[5,6-e]benzo[b]oxepin], the MMTV activity in assay [2] was 22%.

With `C[C@@H]1C[C@H]2[C@@H]3CCC4=CC(=O)C=C[C@]4(C)[C@@]3(F)[C@@H](O)C[C@]2(C)[C@@]1(O)C(=O)CO` [dexamethasone, reference compound], the MMTV activity in assay [2] is recorded as ≥ 100%.

For the origin of these results see patent US20110112299A1, “TETRACYCLIC COMPOUND” (KYOWA HAKKO KIRIN CO., LTD., priority 2008, published 2011).
